Assays:
Assay type in all cases: cell-based
RAW264.7 cells [1] = experiment: Macrophage marker expression in RAW264.7 cells with activin A, activin B or SB431542 and palmitic acid; conditions: for expression level of IL-6 / expression level of MCP-1 / expression level of arginase-1: compared to control
Experimental: (1) Induction of Macrophages by Activin Species Activin A (10 ng/mL), activin B (10 ng/mL), and SB431542 (0.1 to 1 μM) were added to RAW264.7 cells in combination as depicted in FIG. 4. Human Recombinant (R&D Systems, 338AC005) and Recombinant (R&D Systems, 659AB005) were used for activin A and activin B, respectively. After 30 minutes, palmitic acid (a proinflammatory substance) was added to the final concentration of 200 μM and, after eight hours, RNeasy Mini Kit (250) (Qiagen, Cat. Number 74106) was used for recovering the cells to extract RNA. The RNA extracted at step (1) was used for performing a reverse transcription reaction in accordance with the protocol of High Capacity cDNA Reverse Transcription Kit with RNase Inhibitor (ABI) to perform TaqMan PCR. Arginase-1 was selected as an M2 macrophage marker and IL-6 and MCP-1 were selected as M1 macrophage markers to create respective TaqMan probes. Analysis was performed in the same way as the expression analysis of macrophage markers of Example 1.

RAW264.7 cells [2] = experiment: Macrophage marker expression in RAW264.7 cells with activin A, activin B or Fstl3 and palmitic acid; conditions: palmitic acid 200 μM
Experimental: (§1) Activin A (10 ng/mL), activin B (10 ng/mL), and Fstl3 (3 to 30 ng/mL) were added to RAW264.7 cells in combination as depicted in FIG. 5. Human Recombinant (R&D Systems, 338AC005), Recombinant (R&D Systems, 659AB005), and Follistatin-like 3 Recombinant (R&D Systems, 1255F3025) were used for activin A, activin B, and Fstl3, respectively. After 30 minutes, palmitic acid (a proinflammatory substance) was added to the final concentration of 200 μM and, after eight hours, RNeasy Mini Kit (250) (Qiagen, Cat. Number 74106) was used for recovering the cells to extract RNA.
Analysis was performed in the same way as Example 4. For each of palmitic acid, activin species, and Fstl3, the expression level is represented by a ratio when a measurement value of each marker relative to a measurement value of cyclophilin A in non-additive control is defined as one.

RAW264.7 cells [3] = experiment: Expression of M2 macrophage markers in RAW264.7 cells cultured with activin A and SB431542; conditions: SB431542 0.1 to 1 μM added with activin A, 24 hours
Experimental: Activin A (10 ng/mL or 30 ng/mL) and SB431542 (0.1 to 1 μM, Santa Cruz Biotechnology, Inc., sc-204265) were added to RAW264.7 cells in combination as depicted in FIG. 2. Human Recombinant (R&D Systems, 338AC005) was used for activin A. After 24 hours, RNeasy Mini Kit (250) (Qiagen, Cat. Number 74106) was used for recovering the cells to extract RNA. The RNA extracted at step (1) was used for performing a reverse transcription reaction in accordance with the protocol of High Capacity cDNA Reverse Transcription Kit with RNase Inhibitor (ABI) to perform TaqMan PCR. Arginase-1, Mrc2 (mannose receptor 2), and IL-10 were selected as M2 macrophage markers to create respective TaqMan probes.

RAW264.7 cells [4] = experiment: Arginase-1 expression in RAW264.7 cells with activin A, Fstl3, anti-Fstl3 antibody or mouse IgG and palmitic acid; conditions: Fstl3 30 ng/mL present with activin A 10 ng/mL, palmitic acid 200 μM
Experimental: as §1, with “Fstl3 (30 ng/mL), an anti-Fstl3 antibody or mouse IgG (0.3 to 10 μg/mL), and activin” for “Activin”, “(10” for “(10 ng/mL), activin B (10 ng/mL), and Fstl3 (3 to 30”, “6.” for “5.”
The RNA extracted at step (1) was used for performing a reverse transcription reaction in accordance with the protocol of High Capacity cDNA Reverse Transcription Kit with RNase Inhibitor (ABI) to perform TaqMan PCR. Arginase-1 was selected as an M2 macrophage marker to create TaqMan probes.

[5] = palmitic acid 200 μM, absence of activin species, 8 hours
[6] = SB431542 0.1 to 1 μM with palmitic acid 200 μM, absence of activin species
[7] = SB431542 0.1 to 1 μM, activin A 10 ng/mL and palmitic acid 200 μM present
[8] = SB431542 0.1 to 1 μM, activin B 10 ng/mL and palmitic acid 200 μM present
[9] = SB431542 only (0.1 to 1 μM), without palmitic acid

## CCCCCCCCCCCCCCCC(=O)O [palmitic acid]
RAW264.7 cells [1]; [5]
  expression level of IL-6: remarkably increased
  expression level of MCP-1: remarkably increased
  expression level of arginase-1: not changed or was slightly changed
RAW264.7 cells [2]; 8 hours
  expression of IL-6, effect of palmitic acid: increased
RAW264.7 cells [2]; regardless of the presence of activin species, change negligible
  expression of MCP1, effect of palmitic acid: increased

## NC(=O)c1ccc(-c2nc(-c3ccc4c(c3)OCO4)c(-c3ccccn3)[nH]2)cc1 [SB431542]
RAW264.7 cells [3]
  activin A-induced increase in expression of arginase-1, Mrc2 and IL-10: reduced to the same level as control
RAW264.7 cells [1]; [6]
  expression level of IL-6, effect of SB431542: constantly increased depending on the additive concentration
  palmitic acid-induced increase of MCP-1 expression, effect of SB431542: not changed
RAW264.7 cells [1]; [7]
  expression level of IL-6, effect of SB431542: constantly increased depending on the additive concentration
  expression level of arginase-1, effect of SB431542: reduced depending on the additive concentration
  palmitic acid-induced increase of MCP-1 expression, effect of SB431542: not changed
RAW264.7 cells [1]; [8]
  expression level of IL-6, effect of SB431542: constantly increased depending on the additive concentration
  expression level of arginase-1, effect of SB431542: reduced depending on the additive concentration
  palmitic acid-induced increase of MCP-1 expression, effect of SB431542: not changed
RAW264.7 cells [1]; [9]
  expression level of IL-6: not changed or were slightly changed
  expression level of MCP-1: not changed or were slightly changed
  expression level of arginase-1: not changed or were slightly changed

B1: Fstl3: Follistatin-like 3 Recombinant (R&D Systems, 1255F3025); binds to activins and inhibits binding to their receptor (protein, UniProt O95633 27-263, looked up)
Follistatin-related protein 3: MGSGNPAPGGVCWLQQGQEATCSLVLQTDVTRAECCASGNIDTAWSNLTHPGNKINLLGFLGLVHCLPCKDSCDGVECGPGKACRMLGGRPRCECAPDCSGLPARLQVCGSDGATYRDECELRAARCRGHPDLSVMYRGRCRKSCEHVVCPRPQSCVVDQTGSAHCVVCRAAPCPVPSSPGQELCGNNNVTYISSCHMRQATCFLGRSIGVRHAGSCAGTPEEPPGGESAEEEENFV
RAW264.7 cells [2]; Fstl3 30 ng/mL added concurrently with activin A 10 ng/mL
  expression of arginase-1, effect of Fstl3: reduced
RAW264.7 cells [2]; Fstl3 3 to 30 ng/mL
  expression level of MCP1, effect of FSTL3: not changed
RAW264.7 cells [4]
  expression level of arginase-1, effect of FSTL3: reduced to the same level as the control
